Experiments:
Test in all cases: relative viability (nuclei count vs DMSO), 5 days (fraction); higher = more cells survive
Avagacestat + AZD7762 = compound: NC(=O)[C@@H](CCC(F)(F)F)N(Cc1ccc(-c2ncon2)cc1F)S(=O)(=O)c1ccc(Cl)cc1 [Avagacestat] + NC(=O)Nc1cc(-c2cccc(F)c2)sc1C(=O)N[C@H]1CCCNC1 [AZD7762] (partner 0.2 µM)
Method in brief: (§1)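 After 5 days of treatment, lung cancer cells in 1536-well plates were fixed and stained in a single step (final 0.05% Triton X-100, 1% formaldehyde, 1 ug/ml Hoechst) and their nuclei counted on 4× images. Treatment had been applied by pin tool the day after seeding as one drug alone or as a fixed anchor-drug dose with five library-drug doses (not always all listed) in √10 steps. Relative viability is the nuclei count of treated wells divided by that of vehicle wells, and values are medians of duplicate plates.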

Avagacestat + Bortezomib = compound: NC(=O)[C@@H](CCC(F)(F)F)N(Cc1ccc(-c2ncon2)cc1F)S(=O)(=O)c1ccc(Cl)cc1 [Avagacestat] + CC(C)C[C@H](NC(=O)[C@H](Cc1ccccc1)NC(=O)c1cnccn1)B(O)O [Bortezomib] (partner 0.002 µM)
Method in brief: as §1

Avagacestat + Tozasertib = compound: NC(=O)[C@@H](CCC(F)(F)F)N(Cc1ccc(-c2ncon2)cc1F)S(=O)(=O)c1ccc(Cl)cc1 [Avagacestat] + Cc1cc(Nc2cc(N3CCN(C)CC3)nc(Sc3ccc(NC(=O)C4CC4)cc3)n2)n[nH]1 [Tozasertib] (partner 0.1 µM)
Method in brief: as §1

Avagacestat + Decitabine = compound: NC(=O)[C@@H](CCC(F)(F)F)N(Cc1ccc(-c2ncon2)cc1F)S(=O)(=O)c1ccc(Cl)cc1 [Avagacestat] + Nc1ncn([C@H]2C[C@H](O)[C@@H](CO)O2)c(=O)n1 [Decitabine] (partner 2 µM)
Method in brief: as §1

Cell Line	relative viability (Avagacestat + AZD7762; first compound 0.08 µM)	relative viability (Avagacestat + AZD7762; first compound 0.253 µM)	relative viability (Avagacestat + AZD7762; first compound 0.8 µM)	relative viability (Avagacestat + AZD7762; first compound 2.53 µM)	relative viability (Avagacestat + AZD7762; first compound 8 µM)	relative viability (Avagacestat + Bortezomib; first compound 0.08 µM)	relative viability (Avagacestat + Bortezomib; first compound 0.253 µM)	relative viability (Avagacestat + Bortezomib; first compound 0.8 µM)	relative viability (Avagacestat + Bortezomib; first compound 2.53 µM)	relative viability (Avagacestat + Bortezomib; first compound 8 µM)	relative viability (Avagacestat + Tozasertib; first compound 0.08 µM)	relative viability (Avagacestat + Tozasertib; first compound 0.253 µM)	relative viability (Avagacestat + Tozasertib; first compound 0.8 µM)	relative viability (Avagacestat + Tozasertib; first compound 2.53 µM)	relative viability (Avagacestat + Tozasertib; first compound 8 µM)	relative viability (Avagacestat + Decitabine; first compound 0.08 µM)	relative viability (Avagacestat + Decitabine; first compound 0.253 µM)	relative viability (Avagacestat + Decitabine; first compound 0.8 µM)	relative viability (Avagacestat + Decitabine; first compound 2.53 µM)	relative viability (Avagacestat + Decitabine; first compound 8 µM)
NCI-H838	0.988	0.971	0.997	0.857	0.861	0.977	0.922	0.93	0.863	0.502	0.277	0.286	0.269	0.276	0.269	0.483	0.48	0.466	0.471	0.442
HCC-44	0.923	1.04	1.03	1.01	1.18	1.06	1.09	0.934	0.965	0.829	1.03	1.27	0.976	0.146	0.755	0.991	0.944	0.985	0.968	0.986
NCI-H1734	0.612	0.65	0.641	0.5	0.592	1.26	1.01	1.01	1.01	0.945	0.235	0.301	0.264	0.236	0.24	0.608	0.499	0.482	0.482	0.491
HCC-366	0.268	0.272	0.328	0.235	0.176	–	1.98	1.29	1.22	0.887	0.0969	0.172	0.0909	0.0683	0.0694	0.463	0.344	0.36	0.306	0.271
LXF-289	1.13	1.08	1.09	1.16	0.971	1.04	1.1	0.972	0.99	0.911	0.19	0.119	0.211	0.131	0.212	0.359	0.368	0.408	0.347	0.331
A-427	0.752	0.753	0.703	0.619	0.68	0.957	1.08	1.07	1.07	1.08	0.203	0.185	0.206	0.198	0.198	0.549	0.583	0.565	0.619	0.601
HCC-78	0.61	0.615	0.665	0.461	0.529	0.508	0.51	0.514	0.313	0.366	0.404	0.473	0.208	0.396	0.377	0.675	0.726	0.75	0.683	0.669

— the supplement of paper PMC10307832
